Assay results taken from US5066592A, “Trigramin - a platelet aggregation inhibiting polypeptide” (Temple University of the Commonwealth System of Higher …, priority 1990, dated 1991).

Legend:
[1] = system: bleeding time from hamster mesentery lesion; test: Hamster mesentery bleeding time during intravenous infusion; type: in vivo, golden Syrian hamsters
Procedure: Female golden Syrian hamsters (90-150 g) were maintained on food and water ad libitum, but fasted overnight prior to their use in the present experiment. After the administration of anesthesia (65 mg/kg sodium pentobarbital, i.p.), the animals were shaved in preparation for surgery. The trachea was intubated with PE-100 polyethylene tubing to facilitate spontaneous breathing. Cannulation of the right femoral vein was performed to provide an intravenous route for supplemental anesthesia as well as for the administration of various control and experiment agents. A catheter was introduced into the right carotid artery for the continuous monitoring of arterial blood pressure, and a rectal temperature probe was inserted. The animal's body temperature was maintained at 37° C. with a heating pad and lamp.
The shaved abdomen was opened by a mid-line incision and a portion of the small intestine was exteriorized and draped over a lucite pedestal. Exposed tissue was kept warm and moist by continuous superfusion with warmed (37° C.) Mammalian Ringer's Solution. Experimental solutions were infused into the right femoral vein at a rate of 0.199 ml/min with a Harvard pump for a 10 minute period. An arterial vessel (external diameter, 100-200 micrometers) located at the junction of the small intestinal wall and the mesentery was severed 4 minutes after the start of the infusion. Blood was flushed away by the superfusion system and the waste was removed with a vacuum from a well surrounding the viewing pedestal. Bleeding was observed through Zeiss dissecting microscope (20×) and bleeding time was recorded from the time of the cut until the cessation of bleeding by the formation of a hemostatic plug. Each animal was used as its own control with bleeding time determined both during the infusion of saline and the selected experimental agent. […] Four additional animals were infused with trigramin while arterial blood pressure was continuously monitored to determine if it had any direct effect on systemic blood pressure. […]

[2] = target: T1, fibrinogen receptors on platelets associated with the GPIIb-GPIIIa complex (Homo sapiens, UniProt P05106+P08514); test: 125I-fibrinogen binding to ADP-stimulated human washed platelets; conditions: ADP 10 micromolar-stimulated platelets; double-reciprocal plot FIG. 1; read-out: inhibition constant, Ki (competitive inhibition of fibrinogen binding)
T1 construct: Human washed platelet suspension was prepared; endogenous in cells; host or cells: washed human platelets, stimulated with 10 micromolar ADP
Procedure: (§1) The following experiment illustrates that trigramin can inhibit fibrinogen binding to platelets. Human washed platelet suspension was prepared according to the method of Mustard et al., Brit. J. Haemat. 22:193-204 (1972) and suspended in Tyrode's albumin solution (pH 7.35) containing 3.5 mg/ml bovine serum albumin (Sigma, Fraction V). To 420 microliters of this platelet suspension (about 5×10^8 platelets/ml) was added 10 microliters of ^125 I-fibrinogen. An amount of trigramin was added to the suspension, followed 3 minutes later by 10 microliters ADP (final concentration 10 micromolar). Following addition of ADP, the platelet suspension was gently shaken and incubated for about another 10 minutes. Then, 400 microliters of the platelet suspension were centrifuged through silicone oil at 15,000 g in an Eppendorf centrifuge. The amount of ^125 I-fibrinogen bound to the platelet pellet was measured. Nonspecific binding of fibrinogen was measured in the presence of 6 mM EDTA. The IC50 or 50% inhibition of fibrinogen binding was determined.

[3] = system: exposed fibrinogen receptors on alpha-chymotrypsin-treated platelets; test: 125I-fibrinogen binding to alpha-chymotrypsin-treated platelets; set-up: species or system human; conditions: data not shown; read-out: IC50 of inhibition of 125I-fibrinogen binding to alpha-chymotrypsin-treated platelets
Procedure: as §1
(§2) Platelet suspension was prepared as above. Platelets treated with alpha chymotrypsin (Sigma, grade IS) were prepared as described by Kornecki et al., J. Biol. Chem. 258:9349-9356 (1983), except that the incubation time of the platelets with chymotrypsin was reduced from 45 minutes to 20 minutes.

[4] = system: ADP-stimulated platelets; test: Fibrinogen-induced aggregation of ADP-stimulated platelets in suspension (turbidimetric); type: cell-based, human; conditions: ADP 10 micromolar, fibrinogen 200 micrograms/ml, 37° C.; read-out: IC50 for inhibition of aggregation of ADP-stimulated platelets
Procedure: as §2
(§3) Various doses of trigramin (0.25-5.0 microgram/ml) were added to 420 microliters of platelet suspension (3×10^8 platelets per ml). One minute later, 10 microliters ADP (10 micromolar) and 10 microliters fibrinogen (200 micrograms) were added to initiate platelet aggregation. The same procedure using fibrinogen alone (without ADP) was carried out to induce aggregation of the chymotrypsin-treated platelets. The extent of platelet aggregation in each system was measured at 37° C. by the turbidimetric method of Born et al., J. Physiol. (Lond.) 168:178-195 (1963).

[5] = system: chymotrypsin-treated platelets; test: Fibrinogen-induced aggregation of chymotrypsin-treated platelets (turbidimetric); type: cell-based, human; conditions: fibrinogen alone, without ADP, 37° C.; read-out: IC50 for inhibition of chymotrypsin-treated platelets (aggregation)
Procedure: as §2, §3

[6] = system: platelets; test: Platelet aggregation induced by prostaglandin endoperoxide analogue or thrombin; type: cell-based, human; conditions: isolated platelet suspension
[7] = target: T2, GPIIb-GPIIIa complex (Homo sapiens, UniProt P05106+P08514); test: 125I-trigramin binding to human platelets
T2 construct: endogenous in cells; host or cells: human platelets (resting, ADP-stimulated or chymotrypsin-treated)
Excerpt: There are several similarities between the binding of ^125 I-trigramin and the binding of ^125 I-fibrinogen to human platelets. The binding of both ligands is inhibited by EDTA; by monoclonal antibodies interacting with the GP-IIb-GPIIIa complex (Coller, J. Clin. Invest. 76:101-108 (1985) and Bennett et al., Proc. Natl. Acad. Sci. U.S.A. 80:2417-2421 (1983)); by synthetic peptides representing putative platelet binding sites on the fibrinogen molecule Arg-Gly-Asp-Ser (Gartner et al., J. Biol. Chem. 260:11891-11894 (1985) and Plow et al., Proc. Natl. Acad. Sci. U.S.A. 82:8057-8061 (1985)); and by tyrosyl pentadecapeptide of the C-terminal portion of the gamma chain, […](Kloczewiak et al., Biochemistry 23:1767-1774 (1984). […] These individuals are deficient in the GPIIb-GPIIIa complex.
The binding affinity of trigramin to ADP-stimulated platelets resembles that of monoclonal antibodies.

[8] = target: T3, GPIIb-GPIIIa complex on thrombin-stimulated platelets (Homo sapiens, UniProt P05106+P08514); test: 125I-von Willebrand Factor binding to thrombin-stimulated human platelets; conditions: trigramin 10^-8 M; thrombin 0.5 u/ml; von Willebrand Factor 5 micrograms/ml
T3 construct: endogenous in cells; host or cells: human platelets stimulated with thrombin (0.5 u/ml)
Procedure: (§4) The final concentration of von Willebrand Factor was 5 micrograms/ml. The total specific von Willebrand Factor binding was 380+/-55 ng/10^8 platelets in the control sample. […] It is well known that von Willebrand Factor binds to GPIIb-GPIIIa complex on thrombin-stimulated platelets, and to GPIb on ristocetin-stimulated platelets.

[9] = target: T4, GPIb on ristocetin-stimulated platelets (Homo sapiens, UniProt P07359); test: 125I-von Willebrand Factor binding to ristocetin-stimulated platelets; conditions: ristocetin 0.75 mg/ml
T4 construct: endogenous in cells; host or cells: platelets stimulated with ristocetin (0.75 mg/ml)
Procedure: as §4

[10] = system: melanoma cells that contain GPIIIa and vitronectin receptor; test: Melanoma cell adhesion to fibronectin-covered substrata and cell spreading; type: cell-based
Excerpt: We have also observed an interaction between trigramin and melanoma cells that contain GPIIIa and vitronectin receptor. […] In the system tested, the biological activity of 0.2 nmoles of trigramin corresponded to 100 nmoles of the peptide glycine-arginine-glycine-aspartic acid-serine ("GRGDS"). This observation is interesting in view of the successful efforts of Humphries et al., Science 233: 467-470 to inhibit metastases of a melanoma cell line in mice by GRGDS.

[11] = Elimination from the circulation; conditions: in vivo
[12] = Solubility in water; type: physicochemical
[13] = Stability to proteolysis; type: in vitro ADME
[14] = Phospholipase A activity of the HPLC-purified material; type: biochemical
Procedure: A high performance liquid chromatography column (250×4.6 mm) containing a wide-pore C-18 silica matrix (e.g., VYDAC TPRP, The Separations Group, Hesperia, Calif.) is equilibrated at 20° C. in 0.1% trifluoroacetic acid. 150 micrograms of the above-prepared crude material in 200 microliters of 0.15M NaCl is injected into the column at a flow rate of 1.0 ml/min. The column is washed for 3 minutes. Fractions are eluted over 50 minutes with a gradient of 0-55% acetonitrile. […] The homogeneity of the purified material is confirmed by SDS-polyacrylamide gel electrophoresis with a silver stain (1 microgram). Trigramin appears as a single band with apparent molecular weight of about 9 kd on 20% gels.

Compound: CC#CCC(C)[C@H](O)/C=C/[C@@H]1[C@H]2C/C(=C/CCCC(=O)O)C[C@H]2C[C@H]1O (stereo partly drawn) [Iloplrost, reference compound]
- time until bleeding ceased after the completion of the infusion ([1]; one hamster, positive control, 2 ng/kg/min): approximately 9 minutes

Compound: trigramin
- Ki [2]: 20 nM
- IC50 [3]: 11 nM
- IC50 [4]: 130 nM
- IC50 [5]: 28 nM
- inhibition of platelet aggregation induced by 9,11-dideoxy-9,11-methanoepoxy-PGF2-alpha ([6]; agonist 2.5 micromolar): inhibited platelet aggregation
- inhibition of platelet aggregation induced by thrombin ([6]; thrombin 0.5 units/ml): inhibited platelet aggregation
- binding affinity of 125I-trigramin relative to 125I-fibrinogen, judged on dissociation constants ([7]; ADP-stimulated platelets): approximately 15 fold
- binding to platelets of patients with Glanzmann's thrombasthenia ([7]; platelets deficient in the GPIIb-GPIIIa complex): Neither trigramin nor fibrinogen was observed to bind sufficiently
- number of trigramin binding sites relative to total number of fibrinogen binding sites exposed by ADP ([7]; similar on resting, ADP-stimulated and chymotrypsin-treated platelets): 50%
- blocking of von Willebrand Factor binding to thrombin-stimulated human platelets [8]: specifically blocks
- blocking of von Willebrand Factor binding to ristocetin-stimulated platelets [9]: does not block
- adhesion of melanoma cells to fibronectin-covered substrata [10]: blocks the adhesion
- melanoma cell spreading [10]: inhibits cell spreading
- amount giving corresponding biological activity in the melanoma cell system ([10]; 0.2 nmoles of trigramin corresponded to 100 nmoles of GRGDS): 0.2 nmoles
- bleeding time after cessation of infusion ([1]; hamster, infusion 80 micrograms/kg/min, FIG. 4): rapid return of bleeding time to normal values
- bleeding time of the hamster mesentery during continuous infusion ([1]; i.v. infusion, dose-dependent, control bleeding time 3.02 minutes+/-0.43, FIG. 3): markedly increased
- elimination from the circulation [11]: eliminated from the circulation rapidly
- solubility in water [12]: soluble in water
- stability to proteolysis [13]: relatively stable to proteolysis
- phospholipase A activity [14]: devoid of phospholipase A activity
